The values below come from patent EP2354120A1, “Synthesis of acyloxyalkyl carbamate prodrugs and intermediates thereof” (XenoPort, Inc., priority 2003, dated 2005).

Read-outs that look alike come from different tables or passages of the source.

The test system of one data set is Caco-2 cells. The following applies: human, Caco-2, 200 uM.
Another data set deals with pancreatin. The data set is classed as in vitro ADME, porcine. The conditions noted are these: 5 µM. From the text:
The reaction was stopped by addition of 2 volumes of methanol.

The format of data set [1] is in vitro ADME. The following applies: Human Liver S9 (0.5 mg/mL), 2.0 µM, NADPH, 37°C, after 60 min.
Method: (§1) The stabilities of prodrugs were evaluated in one or more in vitro systems using a variety of tissue preparations following methods known in the art. […] Tissues were obtained from commercial sources (e.g., Pel-Freez Biologicals, Rogers, AR, or GenTest Corporation, Woburn, MA). […] Each preparation was incubated with test compound at 37°C for one hour. Aliquots (50 µL) were removed at 0, 30, and 60 min and quenched with 0.1% trifluoroacetic acid in acetonitrile. Samples were then centrifuged and analyzed by LC/MS/MS (see Example 86 below for method details). […] After centrifugation at 14,000 rpm for 10 min, the supernatant was removed and analyzed by LC/MS/MS. • Caco-2 Homogenate S9 Stability: Caco-2 cells were grown for 21 days prior to harvesting. Culture medium was removed and cell monolayers were rinsed and scraped off into ice-cold 10 mM sodium phosphate/0.15 M potassium chloride, pH 7.4. Cells were lysed by sonication at 4°C using a probe sonicator. Lysed cells were then transferred into 1.5 mL centrifuge vials and centrifuged at 9000 g for 20 min at 4°C. […]
(§2) For stability studies, prodrug (5 µM) was incubated in Caco-2 homogenate S9 fraction (0.5 mg protein per mL) for 60 min at 37°C. Concentrations of intact prodrug and released baclofen were determined at zero time and 60 minutes using LC/MS/MS.
Data set [2] is classed as in vitro ADME. The following applies: Caco-2 S9 (0.5 mg protein per mL), 5 µM, 37°C, after 60 min.
Method: as §1, §2
The format of data set [3] is in vitro ADME. The following applies: Rat Liver S9 (0.5 mg/mL), 2.0 µM, NADPH, 37°C, after 60 min.
Method: as §1, §2
Data set [4] is classed as in vitro ADME. The following applies: Human Plasma, 2.0 µM, 37°C, after 60 min.
Method: as §1, §2
The format of data set [5] is in vitro ADME. The conditions noted are these: Rat Plasma, 2.0 µM, 37°C, after 60 min.
Method: as §1, §2
The format of data set [6] is physicochemical. The conditions noted are these: after 60 min.
Method: The chemical stability of prodrugs in aqueous buffers at pH's of 2.0, 7.4 and 8.0 were also measured. […] Each preparation was incubated with test compound at 37°C for one hour. Aliquots (50 µL) were removed at 0, 30, and 60 min and quenched with 0.1% trifluoroacetic acid in acetonitrile. Samples were then centrifuged and analyzed by LC/MS/MS (see Example 86 below for method details).
The conditions of data set [7]: oral; 2 mg t.i.d R-baclofen equivalent to 10 mg t.i.d. racemic baclofen; cited from earlier work.
Where [8] appears, read: 1 % (w/v) pancreatin, pH 7.5, 37 °C, after 60 min.

Method for Caco-2 cells: Caco-2 cells obtained from continuous culture (passage less than 28) were seeded at high density onto Transwell polycarbonate filters. […] Inserts were placed in 12 or 24 well plates containing buffer and incubated for 30 min at 37C°. Prodrug (200 µM) was added to the apical or basolateral compartment (donor) and concentrations of prodrug and/or released parent drug in the opposite compartment (receiver) were determined at intervals over 1 hour using LC/MS/MS. Values of apparent permeability (Papp) were calculated using the equation: Papp = Vr (dC/dt)//(ACo) [formula]
Here Vr is the volume of the receiver compartment in mL; dC/dt is the total flux of prodrug and parent drug (µM/s), determined from the slope of the plot of concentration in the receiver compartment versus time; Co is the initial concentration of prodrug in µM; A is the surface area of the membrane in cm^2.

Consider `CCCC(=O)OC(OC(=O)NC[C@H](CC(=O)O)c1ccc(Cl)cc1)C(C)C` (stereo partly drawn) [(27), Sodium 4-[(1-Butanoyloxyisobutoxy)carbonylamino]-(3R)-(4-chlorophenyl)-butanoate], for which, in the data set with Caco-2 cells, the “Ratio A-B/B-A” value is reported as 6.9. In addition, in the data set on pancreatin (setting [8]), the “% of Baclofen Released” value turned out to be 9% and the “% of Prodrug Remaining” value was 71%.

Consider `COc1ccc(C(=O)OCOC(=O)NC[C@H](CC(=O)[O-])c2ccc(Cl)cc2)cc1.[Na+]` [(53), Sodium 4-[(4-Methoxybenzoloxymethoxy)carbonylamino]-(3R)-(4-chlorophenyl)-butan oate], for which the “Ratio A-B/B-A” value in the data set with Caco-2 cells came to 2.4.

As for `CCCC(OC(=O)NC[C@H](CC(=O)[O-])c1ccc(Cl)cc1)OC(=O)c1ccccc1.[Na+]` (stereo partly drawn) [(71), Sodium 4-[(1-Benzoyloxybutoxy)carbonylamino]-(3R)-(4-chlorophenyl)-butanoate], the “Ratio A-B/B-A” value in the data set on Caco-2 cells is given as 7.1.

On to `CCCC(=O)OC(C)OC(=O)NC[C@H](CC(=O)[O-])c1ccc(Cl)cc1.[Na+]` (stereo partly drawn) [(32), Sodium 4-[(1-Butanoyloxyethoxy)carbonylamino]-(3R)-(4-chlorophenyl)-butanoate], for which the “Ratio A-B/B-A” value with Caco-2 cells worked out at 7.6.

Consider `CC(OC(=O)NC[C@H](CC(=O)[O-])c1ccc(Cl)cc1)OC(=O)c1ccccc1.[Na+]` (some centres unmarked) [(40)], for which the “% of Baclofen Released” value in data set [1] is given as 105%; in the data set on pancreatin (pig, pancreatin, 1 h, pH 7.5), 58%; in data set [2] it was 85%; in data set [3], 96%; in [4], 2%; in data set [5], 17%. In addition, the “% of Baclofen Released” value in [6] (aqueous buffer pH 2.0, 37°C) came to 0%; in data set [6] (aqueous buffer pH 7.4, 37°C) it was 0%; in data set [6] (aqueous buffer pH 8.0, 37°C), 2%. The “% of Prodrug Remaining” value was 1% in data set [1]; 43% in the data set on pancreatin (pig, pancreatin, 1 h, pH 7.5); 15% in data set [2]; 8% in data set [3]; 101% in data set [4]; 72% in [5]. For the same molecule, the “% of Prodrug Remaining” value turned out to be 103% in data set [6] (aqueous buffer pH 2.0, 37°C); 100% in [6] (aqueous buffer pH 7.4, 37°C); 107% in data set [6] (aqueous buffer pH 8.0, 37°C).

`CC(C)C(=O)OCOC(=O)NC[C@H](CC(=O)O)c1ccc(Cl)cc1` [(18), Sodium 4-[(Isobutanoyloxymethoxy)carbonylamino]-(3R)-(4-chlorophenyl)-butanoate]: in the data set on pancreatin (pig, pancreatin, 1 h, pH 7.5), the “% of Baclofen Released” value amounted to 91% and the “% of Prodrug Remaining” value came out at 2%.

As for `CCOC(C)(OCC)C(=O)OCOC(=O)NC[C@H](CC(=O)[O-])c1ccc(Cl)cc1.[Na+]` [(51), Sodium 4-[(2,2-Diethoxypropanoyloxymethoxy)carbonylamino]-(3R)-(4-chlorophenyl)-butanoate], the “Ratio A-B/B-A” value in the data set on Caco-2 cells came out at 3.0.

`O=C(O)C[C@@H](CNC(=O)OCOC(=O)CCc1ccccc1)c1ccc(Cl)cc1` [(62), Sodium 4-[(3-Phenylpropionoyloxymethoxy)carbonylamino]-(3R)-(4-chlorophenyl)-butanoate]: in the data set with pancreatin (setting [8]), the “% of Baclofen Released” value was 79% and the “% of Prodrug Remaining” value was 1%.

On to `CC(OC(=O)NC[C@H](CC(=O)O)c1ccc(Cl)cc1)OC(=O)C1CCCCC1` (stereo partly drawn) [(38), Sodium 4-[(1-Cyclohexylcarbonyloxyethoxy)carbonylamino]-(3R)-(4-chlorophenyl)-butanoate], for which the “Ratio A-B/B-A” value in the data set on Caco-2 cells was determined as 1.1.

Take `CC(C)C(=O)O[C@@H](OC(=O)NC[C@H](CC(=O)O)c1ccc(Cl)cc1)C(C)C` [(104), 4-{[(1S)-Isobutanoyloxyisobutoxy]carbonylamino}-(3R)-(4-chlorophenyl) -butanoic Acid]: the “% of Baclofen Released” value with pancreatin (1 % (w/v) pancreatin, pH 7.5, 37 °C, after 60 min, 60 min) amounted to 6%. Also, the “% of Prodrug Remaining” value in the data set on pancreatin (pig, pancreatin, 1 h, pH 7.5) amounted to 90%.

For the molecule `CCCC(=O)O[C@H](OC(=O)NC[C@H](CC(=O)O)c1ccc(Cl)cc1)C(C)C` [(90), Sodium 4-{[(1R)-Butanoyloxyisobutoxy]carbonylamino}-(3R)-(4-chlorophenyl)-butanoate], in the data set on pancreatin (setting [8]), the “% of Baclofen Released” value was found to be 68% and the “% of Prodrug Remaining” value is recorded as 9%.

In the case of `CC(C)C(OC(=O)NC[C@H](CC(=O)O)c1ccc(Cl)cc1)OC(=O)C(C)(C)C` (stereo partly drawn) [(43), Sodium 4-[(1-Pivaloyloxyisobutoxy)carbonylamino]-(3R)-(4-chlorophenyl)-butanoate], the “Ratio A-B/B-A” value in the data set with Caco-2 cells is 2.3. Moreover, in the data set on pancreatin (setting [8]), the “% of Baclofen Released” value is given as 4% and the “% of Prodrug Remaining” value is recorded as 82%.

For the molecule `O=C(O)C[C@@H](CNC(=O)OCOC(=O)C1CCCCC1)c1ccc(Cl)cc1` [(14), Sodium 4-[(Cyclohexanecarboxymethoxy)carbonylaminol-(3R)-(4-chlorophenyl)-butanoate], the “Ratio A-B/B-A” value in the data set on Caco-2 cells is 4.1. For the same molecule, in the data set with pancreatin (setting [8]), the “% of Baclofen Released” value stood at 101% and the “% of Prodrug Remaining” value came out at 2%.

On to `CCC(=O)OC(OC(=O)NC[C@H](CC(=O)[O-])c1ccc(Cl)cc1)C(C)C.[Na+]` (stereo partly drawn) [(48), Sodium 4-[(1-Propanoyloxyisobutoxy)carbonylamino]-(3R)-(4-chlorophenyl)-butanoate], for which the “Ratio A-B/B-A” value in the data set on Caco-2 cells came to 6.5.

Regarding `CCCC(=O)OC(CCC)OC(=O)NC[C@H](CC(=O)[O-])c1ccc(Cl)cc1.[Na+]` (stereo partly drawn) [(73), Sodium 4-[(1-Butanoyloxybutoxy)carbonylamino]-(3R)-(4-chlorophenyl)-butanoate], the “Ratio A-B/B-A” value in the data set with Caco-2 cells turned out to be 3.2.

Turning to `CC(=O)OCOC(=O)NC[C@H](CC(=O)[O-])c1ccc(Cl)cc1.[Na+]` [(10), Sodium 4-[(Acetoxymethoxy)carbonylamino]-(3R)-(4-chlorophenyl)-butanoate], the “Ratio A-B/B-A” value in the data set on Caco-2 cells is 1.2.

Regarding `CCCC(OC(=O)NC[C@H](CC(=O)[O-])c1ccc(Cl)cc1)OC(=O)C(C)C.[Na+]` (stereo partly drawn) [(72), Sodium 4-[(1-Isobutanoyloxybutoxy)carbonylamino]-(3R)-(4-chlorophenyl)-butanoate], the “Ratio A-B/B-A” value with Caco-2 cells is on record as 3.5.

As to `CCCC(=O)O[C@H](CCC)OC(=O)NC[C@H](CC(=O)O)c1ccc(Cl)cc1` [(86), Sodium 4-{[(1S)-Butanoyloxybutoxy]carbonylamino}-(3R)-(4-chlorophenyl)-butanoate], in the data set on pancreatin (setting [8]), the “% of Baclofen Released” value is given as 76% and the “% of Prodrug Remaining” value amounted to 4%.

Turning to `CCCC(=O)OC(CC)OC(=O)NC[C@H](CC(=O)[O-])c1ccc(Cl)cc1.[Na+]` (stereo partly drawn) [(78), Sodium 4-[(1-Butanoyloxypropoxy)carbonylamino]-(3R)-(4-chlorophenyl)-butanoate], the “Ratio A-B/B-A” value in the data set with Caco-2 cells is 7.9.

On to `CCCC(=O)OCOC(=O)NC[C@H](CC(=O)O)c1ccc(Cl)cc1` [(16), Sodium 4-[(Butanoyloxymethoxy)carbonylamino]-(3R)-(4-chlorophenyl)-butanoate], for which, in the data set on pancreatin (pig, pancreatin, 1 h, pH 7.5), the “% of Baclofen Released” value is 84% and the “% of Prodrug Remaining” value was 1%.

On to `NC[C@H](CC(=O)O)c1ccc(Cl)cc1` [R-baclofen, R-(-)-baclofen], for which, in data set [7], the “potency relative to orally administered racemic baclofen” value is on record as “about 5 fold”.

With `O=C([O-])C[C@@H](CNC(=O)OCOC(=O)c1ccccc1)c1ccc(Cl)cc1.[Na+]` [(12)], the “Ratio A-B/B-A” value with Caco-2 cells turned out to be 5.9.

Turning to `CC(=O)OC(C)OC(=O)NC[C@H](CC(=O)O)c1ccc(Cl)cc1` (stereo partly drawn) [(30), Sodium 4-[(1-Acetoxyethoxy)carbonylamino]-(3R)-(4-chlorophenyl)-butanoate], in the data set on pancreatin (pig, pancreatin, 1 h, pH 7.5), the “% of Baclofen Released” value is 9% and the “% of Prodrug Remaining” value was 90%.
